Results on 1 compound are retold here after ChEMBL document CHEMBL1649462, “Concentrations of voriconazole in healthy and inflamed lung in rats” (Antimicrob Agents Chemother, 2009).

Series [1] deals with Lung. Kind of series: Free AUC (0 to 6 hrs) in lung of healthy Wistar rat at 6 mg/kg, iv administered as single dose after 6 hrs by microdialysis technique. It is filed as ADME, organism-based. Details: dose 6 mg/kg, route intravenous. Conditions: in vivo.
Series [2] in a line: AUC (0 to 6 hrs) in plasma of healthy Wistar rat at 6 mg/kg, iv administered as single dose after 6 hrs by microdialysis technique. The format is ADME, organism-based. Further details: time < 6 hr, dose 6 mg/kg, route intravenous.
Series [3] in a line: Free AUC (0 to 6 hrs) in skeletal muscle of healthy Wistar rat at 6 mg/kg, iv administered as single dose after 6 hrs by microdialysis technique. Further details: dose 6 mg/kg, route intravenous. Conditions: in vivo. The format is ADME, organism-based, Muscle tissue.
Series [4] is described as follows: Cmax in plasma of healthy Wistar rat at 6 mg/kg, iv administered as single dose after 6 hrs by microdialysis technique. It is filed as ADME, organism-based. Details: dose 6 mg/kg, route intravenous.
Series [5] deals with Lung. Kind of series: fCmax in lung of healthy Wistar rat at 6 mg/kg, iv administered as single dose after 6 hrs by microdialysis technique. The format is ADME, organism-based. Further details: dose 6 mg/kg, route intravenous. Conditions: in vivo.
The nature of series [6]: fCmax in skeletal muscle of healthy Wistar rat at 6 mg/kg, iv administered as single dose after 6 hrs by microdialysis technique. Further details: dose 6 mg/kg, route intravenous. The format is ADME, organism-based, Muscle tissue. Conditions: in vivo.
Series [7] in a line: Tmax in plasma of healthy Wistar rat at 6 mg/kg, iv administered as single dose after 6 hrs by microdialysis technique. The format is ADME, organism-based. Details: dose 6 mg/kg, route intravenous.
Series [8] can be described thus: fTmax in lung of healthy Wistar rat at 6 mg/kg, iv administered as single dose after 6 hrs by microdialysis technique. Conditions: read-out: fTmax (converted). Further details: dose 6 mg/kg, route intravenous. The format is ADME, organism-based.
Series [9] is described as follows: fTmax in skeletal muscle of healthy Wistar rat at 6 mg/kg, iv administered as single dose after 6 hrs by microdialysis technique. It is filed as ADME, organism-based, Muscle tissue. Further details: dose 6 mg/kg, route intravenous. Conditions: read-out: fTmax (converted).
The nature of series [10]: Half life in plasma of healthy Wistar rat at 6 mg/kg, iv administered as single dose after 6 hrs by microdialysis technique. The format is ADME, organism-based. Details: dose 6 mg/kg, route intravenous.
A short description of series [11]: AUC (0 to 6 hrs) in plasma of Wistar rat with LPS-induced severe inflammatory response at 6 mg/kg, iv administered as single dose after 6 hrs by microdialysis technique. It is filed as ADME, organism-based. Details: time < 6 hr, dose 6 mg/kg, route intravenous.
Series [12] is described as follows: AUC (0 to 6 hrs) in lung of Wistar rat with LPS-induced severe inflammatory response at 6 mg/kg, iv administered as single dose after 6 hrs by microdialysis technique. The format is ADME, organism-based. Further details: time < 6 hr, dose 6 mg/kg, route intravenous.
Series [13] can be described thus: AUC (0 to 6 hrs) in skeletal muscle of Wistar rat with LPS-induced severe inflammatory response at 6 mg/kg, iv administered as single dose after 6 hrs by microdialysis technique. It is filed as ADME, organism-based. Further details: time < 6 hr, dose 6 mg/kg, route intravenous.
The nature of series [14]: Cmax in plasma of Wistar rat with LPS-induced severe inflammatory response at 6 mg/kg, iv administered as single dose after 6 hrs by microdialysis technique. It is filed as ADME, organism-based. Further details: dose 6 mg/kg, route intravenous.
Series [15] relates to Lung. Put plainly: fCmax in lung of Wistar rat with LPS-induced severe inflammatory response at 6 mg/kg, iv administered as single dose after 6 hrs by microdialysis technique. The format is ADME, organism-based. Details: dose 6 mg/kg, route intravenous. Conditions: in vivo.
Series [16] is described as follows: fCmax in skeletal muscle of Wistar rat with LPS-induced severe inflammatory response at 6 mg/kg, iv administered as single dose after 6 hrs by microdialysis technique. It is filed as ADME, organism-based, Muscle tissue. Details: dose 6 mg/kg, route intravenous. Conditions: in vivo.
A short description of series [17]: Tmax in plasma of Wistar rat with LPS-induced severe inflammatory response at 6 mg/kg, iv administered as single dose after 6 hrs by microdialysis technique. It is filed as ADME, organism-based. Details: dose 6 mg/kg, route intravenous.
The nature of series [18]: fTmax in lung of Wistar rat with LPS-induced severe inflammatory response at 6 mg/kg, iv administered as single dose after 6 hrs by microdialysis technique. Conditions: read-out: fTmax (converted). The format is ADME, organism-based. Details: dose 6 mg/kg, route intravenous.
The nature of series [19]: fTmax in skeletal muscle of Wistar rat with LPS-induced severe inflammatory response at 6 mg/kg, iv administered as single dose after 6 hrs by microdialysis technique. Conditions: read-out: fTmax (converted). The format is ADME, organism-based, Muscle tissue. Details: dose 6 mg/kg, route intravenous.
A short description of series [20]: Half life in plasma of Wistar rat with LPS-induced severe inflammatory response at 6 mg/kg, iv administered as single dose after 6 hrs by microdialysis technique. It is filed as ADME, organism-based. Further details: dose 6 mg/kg, route intravenous.
Series [21] can be described thus: Protein binding in female Sprague-Dawley rat plasma at 30 mg/kg, po for 6 days. It is filed as ADME, organism-based. Further details: dose 30 mg/kg, route oral. Conditions: read-out: PPB (converted).
A short description of series [22]: Protein binding in male Sprague-Dawley rat plasma at 30 mg/kg, po for 6 days. The format is ADME, organism-based. Details: dose 30 mg/kg, route oral. Conditions: read-out: PPB (converted).

What is called AUC(0-t) is exposure summed from dosing to a finite time, without extrapolation to infinity. Low readings indicate low exposure, high ones high exposure. For orientation: Cmax means the maximum level reached in the sampled fluid or tissue. One may read the half-life as the time needed for the level to fall by half in the phase considered. The low end stands for rapid decline, the high end for slow decline. For `C[C@@H](c1ncncc1F)[C@](O)(Cn1cncn1)c1ccc(F)cc1F` [VORICONAZOLE], the fAUC in series [1] is 608 mg·min/L; in series [3], 530 mg·min/L. For the same compound, the AUC(0-t) at 6 h was 19600 ng·h/mL in series [2], 22700 ng·h/mL in series [11], 8170 ng·h/mL in series [12] and 8450 ng·h/mL in series [13]. For the same compound, the peak concentration (Cmax) in series [4] was 5400 ng/mL; in [14], 6300 ng/mL. For the same compound, the fCmax was found to be 2.6 mg/L in [5], 2.2 mg/L in series [6], 2.3 mg/L in series [15] and 2.2 mg/L in series [16]. The Tmax was 0.817 h in series [7]; 2.28 h in series [8]; 3.25 h in [9]; 0.25 h in series [17]; 1.87 h in series [18]; 2.17 h in series [19]. Also, the results for the half-life in [10] and in [20] were 10.2 h and 11.3 h, respectively. The fraction unbound at 144 h in [21] and in series [22] was 0.34 each time.
